The target of the assay is T1, Efl1 wild type in complex with Sdo1 and 60S subunits (Saccharomyces cerevisiae, UniProt P53893).
T1 construct: made in house; host or cells: Efl1: Saccharomyces cerevisiae; Sdo1: Escherichia coli C41; 60S subunits purified from S. cerevisiae strain JD1370
T1 sequence (P53893 1-1110): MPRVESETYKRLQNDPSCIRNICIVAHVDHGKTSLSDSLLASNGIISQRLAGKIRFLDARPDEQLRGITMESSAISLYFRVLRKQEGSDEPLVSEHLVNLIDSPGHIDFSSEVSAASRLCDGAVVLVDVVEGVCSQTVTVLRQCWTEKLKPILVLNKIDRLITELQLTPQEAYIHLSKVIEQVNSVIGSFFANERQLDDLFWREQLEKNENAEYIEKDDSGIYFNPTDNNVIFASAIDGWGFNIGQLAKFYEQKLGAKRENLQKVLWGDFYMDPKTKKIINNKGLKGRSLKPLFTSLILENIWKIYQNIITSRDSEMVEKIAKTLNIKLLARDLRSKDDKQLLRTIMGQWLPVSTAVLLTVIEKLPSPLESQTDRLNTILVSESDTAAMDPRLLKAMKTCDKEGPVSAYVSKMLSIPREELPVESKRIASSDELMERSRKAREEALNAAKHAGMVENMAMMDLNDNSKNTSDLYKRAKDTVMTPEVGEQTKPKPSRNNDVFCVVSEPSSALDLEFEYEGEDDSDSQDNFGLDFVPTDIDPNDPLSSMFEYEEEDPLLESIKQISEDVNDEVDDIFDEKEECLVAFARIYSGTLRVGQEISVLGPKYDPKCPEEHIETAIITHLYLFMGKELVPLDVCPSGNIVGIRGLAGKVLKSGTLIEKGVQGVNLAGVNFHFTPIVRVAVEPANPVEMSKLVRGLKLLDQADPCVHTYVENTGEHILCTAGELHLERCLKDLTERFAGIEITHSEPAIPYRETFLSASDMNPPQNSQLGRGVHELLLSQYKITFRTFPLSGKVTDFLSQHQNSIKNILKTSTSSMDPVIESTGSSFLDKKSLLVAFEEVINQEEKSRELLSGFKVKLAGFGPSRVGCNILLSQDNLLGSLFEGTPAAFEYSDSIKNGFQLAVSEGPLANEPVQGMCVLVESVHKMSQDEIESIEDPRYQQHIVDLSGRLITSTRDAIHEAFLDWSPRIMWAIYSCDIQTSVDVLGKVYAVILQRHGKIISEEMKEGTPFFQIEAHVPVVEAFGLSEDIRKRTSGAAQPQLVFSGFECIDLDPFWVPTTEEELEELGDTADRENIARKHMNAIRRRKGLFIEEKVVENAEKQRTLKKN
T1 sequence (Q07953 1-250 partner): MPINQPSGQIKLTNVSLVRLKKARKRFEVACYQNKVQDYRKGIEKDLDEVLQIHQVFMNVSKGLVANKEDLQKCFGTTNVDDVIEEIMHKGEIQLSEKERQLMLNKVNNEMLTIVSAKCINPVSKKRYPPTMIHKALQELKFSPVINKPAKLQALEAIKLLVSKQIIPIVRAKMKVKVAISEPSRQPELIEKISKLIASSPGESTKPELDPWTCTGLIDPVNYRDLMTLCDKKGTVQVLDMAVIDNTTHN
As to the kind of experiment: Steady state fluorescence binding of mant-GTP to Efl1 wild type in complex with Sdo1 and 60S subunits. The following applies: 25 °C, one-binding-site model; read-out: dissociation constant (Kd). The method, then:
We measured the binding of different Efl1 constructs present in complex with Sdo1 and 60S subunits to the fluorescence GTP analogue, mant-GTP, by following the increase in the fluorescence signal after excitation at 355 nm. Fluorescence intensities were plotted as a function of increasing nucleotide concentrations, and the dissociation constant (Kd) was calculated by fitting the data to a one-binding-site model (Supplementary Figure S1B).
Hydrolysis of GTP was measured using the Enzchek Phosphate Assay kit (Molecular Probes) as described by Webb. Standard reactions consisted of 100 µL containing 6 µM of Efl1 R1086Q and Efl1 L910K, 0.3 mM MESG, 1.0 U purine nucleoside phosphorylase (PNP) and the indicated amounts of GTP. […]
Reactions were initiated and the GTPase was added after 3 min. Time courses were followed by recording the change in absorbance at 360 nm in a Cary 60 UV -Vis spectrophotometer (Agilent Technologies). Background absorbance was recorded prior to the addition of the GTPase and subtracted from the sample signals. The slope of the measured time courses corresponded to the GTP hydrolysis rate. […] Data were analysed by nonlinear regression to the M ichaelis-Menten equation with the program Origin Version 5.0 (OriginLab, Co., Northampton, MA). […]
Steady state fluorescence measurements […]
Maximum emission at 440 nm was replotted as a function of nucleotide concentration and analysed

Each structure is given as a SMILES string.

As a reminder, the Kd is the constant that tells how readily two partners part at equilibrium.

Take `CNc1ccccc1C(=O)O[C@H]1[C@@H](O)[C@H](n2cnc3c(=O)[nH]c(N)nc32)O[C@@H]1COP(=O)(O)OP(=O)(O)OP(=O)(O)O` [mant-GTP]: the Kd turned out to be 36 µM.

The values are drawn from paper PMC9405973, “Altered Conformational Landscape upon Sensing Guanine Nucleotides in a Disease Mutant of Elongation Factor-like 1 (EFL1) GTPase” (Biomolecules, 2022).
